According to PubChem BioAssay (NCI):
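Briefly, cells in 96-well plates were exposed to five compound concentrations for 48 h, and endpoints were estimated by linear interpolation. At the TGI there is no net growth.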

Assays:
Test in all cases: NCI anticancer screen, dose series, 48 h
DMS 273 small cell lung = tested on: DMS 273 small cell lung
EKVX NSCLC = tested on: EKVX NSCLC
HCT-15 colon = tested on: HCT-15 colon
HOP-62 NSCLC = tested on: HOP-62 NSCLC
HOP-92 NSCLC = tested on: HOP-92 NSCLC
HT29 colon = tested on: HT29 colon
K-562 leukemia = tested on: K-562 leukemia
KM12 colon = tested on: KM12 colon
MALME-3M melanoma = tested on: MALME-3M melanoma
MOLT-4 leukemia = tested on: MOLT-4 leukemia
NCI-H226 lung = tested on: NCI-H226 lung
NCI-H460 lung = tested on: NCI-H460 lung
RPMI-8226 leukemia = tested on: RPMI-8226 leukemia
RXF 393 renal = tested on: RXF 393 renal
SF-268 CNS = tested on: SF-268 CNS
SNB-75 CNS = tested on: SNB-75 CNS
UACC-62 melanoma = tested on: UACC-62 melanoma

| SMILES | TGI (DMS 273 small cell lung) | TGI (EKVX NSCLC) | TGI (HCT-15 colon) | TGI (HOP-62 NSCLC) | TGI (HOP-92 NSCLC) | TGI (HT29 colon) | TGI (K-562 leukemia) | TGI (KM12 colon) | TGI (MALME-3M melanoma) | TGI (MOLT-4 leukemia) | TGI (NCI-H226 lung) | TGI (NCI-H460 lung) | TGI (RPMI-8226 leukemia) | TGI (RXF 393 renal) | TGI (SF-268 CNS) | TGI (SNB-75 CNS) | TGI (UACC-62 melanoma) |
| --- | --- | --- | --- | --- | --- | --- | --- | --- | --- | --- | --- | --- | --- | --- | --- | --- | --- |
| COc1cc(C2c3cc4c(cc3[C@@H](Nc3cccc([N+](=O)[O-])c3)C3COC(=O)[C@H]23)OCO4)cc(OC)c1O (some centres undefined) | 6.11 µM | > 38.2 µM | 4.12 µM | 3.31 µM | 27.7 µM | 13.1 µM | > 40.5 µM | 16.9 µM | 20.1 µM | 3.37 µM | 7.94 µM | 1.72 µM | 32.1 µM | 7.41 µM | > 51.5 µM | > 22.7 µM | 15.7 µM |
| NC1(C(=O)O)CCCC1 | > 625 µM | > 625 µM | > 625 µM | > 625 µM | > 625 µM | > 625 µM | > 625 µM | > 625 µM | > 625 µM | > 625 µM | > 625 µM | > 625 µM | > 625 µM | > 625 µM | > 370 µM | > 625 µM | > 625 µM |
